Results published in patent US10124019B2, “Compositions and their use for removing cholesterol” (Cornell University, priority 2009, dated 2018).
Where two headings read alike, the source gives them in different places.

Legend:
GM03123 (NPC1) cells = assay: LSO filipin assay of cholesterol accumulation, NPC1 mutant fibroblasts; type: cell-based, human
Protocol: (§1) FIGS. 5 A-D. Charts showing quantification of CD effects on cholesterol accumulation in NPC1 and NPC2 mutant cells. The filipin fluorescence in LSOs was measured in NPC1 (A and B) and NPC2 (C and D) mutant cells treated with either MβCD (A and C) or HPβCD (B and D) for 1-4 days.
(§2) FIG. 6. Chart comparing cholesterol accumulation as measured by the LSO assay in NPC1-defective, NPC2-defective, and apparently normal human fibroblasts. […] At the end of the experiment, cells were fixed with 1% PFA and stained with 50 μg/mL filipin. Images were acquired using an ImageXpress MICRO imaging system with a 10× objective. Quantification of filipin labeling of the LSOs was performed as described previously (Pipalia N H, Huang A, Ralph H, Rujoi M, Maxfield FR (2006) Automated microscopy screening for compounds that partially revert cholesterol accumulation in Niemann-Pick C cells. J. Lipid Res. 47:284-301).

GM18455 (NPC2) cells = assay: LSO filipin assay of cholesterol accumulation, NPC2 mutant fibroblasts; type: cell-based, human
Protocol: as §1, §2

NPC mutant cells = assay: BMP accumulation by anti-BMP immunofluorescence; type: cell-based, human; conditions: 0.9 mM CD for ≈1 day (FIG. 15)
Protocol: FIGS. 15 A-C. CD effects on BMP accumulation in NPC mutant cells. BMP levels were quantified using fluorescence microscopy from images obtained with a 20× objective of cells stained with anti-BMP antibody and AlexaFluor488-conjugated secondary antibody in NPC1 (A), NPC2 (B) mutant, and 1 μM U18666A-treated normal (C) cells. Cells were incubated with 0.9 mM CD for ≈1 day.

[1] = test system: NPC1 and NPC2 mutant cells; assay: LSO filipin staining after cyclodextrin treatment, withdrawal and acute treatment; type: cell-based, human; conditions: for cholesterol accumulation detected by filipin labeling: 300 μM CD for 1 day (FIG. 4); for LSO values one more day after CD removal versus fixed immediately / LSO cholesterol accumulation after three days without extracellular CD: 1 day treatment; for LSO values one more day after CD removal versus fixed immediately: then 1 day in growth medium without CD; for LSO cholesterol accumulation after three days without extracellular CD: then three days in serum containing medium; for level to which LSO cholesterol accumulation is reduced: low micromolar concentrations, 1-4 days (FIG. 5)
Protocol: FIG. 4. Micrographs showing the effect of CDs on cholesterol accumulation in NPC1- and NPC2-deficient cells. (A) Background and shading corrected images of untreated (a and b), MβCD-treated (c and d), or HPβCD-treated (e and f) GM03123 NPC1 cells (a, c, and e) or GM18455 NPC2 (b, d, and f) mutant cells. NPC mutant cells were treated with 300 μMCD for 1 day. (B) Untreated, apparently normal GM05659 cells, shown for comparison. (Scale bars, 100 μm.)
FIGS. 8 A-D. Charts showing persistence of CD effects after treatment. NPC1 (A and B) and NPC2 (C and D) treated with various concentrations of MβCD (A and C) and HPβCD (B and D) for 1 day and then fixed (0 days after 24 h treatment), or rinsed extensively, and allowed to grow in normal growth medium for up to three additional days after CD removal. Quantification of LSO filipin fluorescence power is shown.
FIG. 9 A, B. Filipin micrographs showing acute cyclodextrin effects on cholesterol accumulation in NPC1- and NPC2-deficient cells. Background and shading corrected images of untreated control (panels a-c), 0 h after treatment (panels d-f), or 24 h after treatment (panels g-i) for NPC1 (A) or NPC2 (B) mutant cells were obtained as in FIG. 6. […] (Scale bars, 100 μm.)
FIGS. 10 A-D. Short-term MβCD treatment. […] Cells were either fixed immediately or rinsed extensively and returned to growth medium for 24 hours. Quantification of LSO filipin fluorescence power is shown (A and C). Numeric data represent averages±SEM of three independent experiments normalized to control (untreated) average value for each experiment. *P<0.0001 vs. control (n=12, where n is total number of wells used for quantification). Filipin images of NPC1 (B) or NPC2 (D) mutant cells treated with MβCD/cholesterol are shown. (Scale bars, 100 μm.)
To determine whether the CD-mediated decrease in cholesterol accumulation would be sustained after the compound has been removed from the culture medium, NPC1 and NPC2 mutant cells were treated for 1 day with varying concentrations of MβCD or HPβCD (FIG. 8). The cells were then washed extensively to remove the compounds and returned to growth medium for up to three days.
To determine whether the reduction of free cholesterol in LSOs of NPC-defective cells resulted from extraction of cholesterol by CD from the PM or from inside the LSOs, this experiment acutely treated cells for one hour with MβCD in medium without serum (to extract cholesterol from the PM), MβCD in medium plus 10% FBS (to exchange cholesterol between serum lipoproteins and the PM (V. M. Atger, et al. (1997), J. Clin. Invest., 99:773-780)), or MβCD loaded with cholesterol (≈5:1 (MβCD/cholesterol) ratio) to overload cells with cholesterol.

[2] = test system: U18666A-treated GM05659 cells
Protocol: (§3) Cells were plated in 384-well assay plates at a density to produce ≈80-90% confluency by experiment completion and treated with U18666A at indicated concentrations for 24 hour before addition of various concentrations of either MβCD or HPβCD for another 24 hours, during which indicated U18666A levels were maintained. At the end of the experiment, cells were fixed with 1% PFA and stained with 50 μg/mL filipin. Images were acquired using an ImageXpressMICRO imaging system with a 10× objective. […] (A) Cholesterol accumulation, as measured by the LSO filipin assay, at different concentrations of U18666A. MβCD (B) and HPβCD (C) LSO filipin dose-response curves at three different U18666A concentrations. […] Data represent averages±SEM of two independent experiments (n=12 for control and n=6 for treated, where n is total number of wells per condition used for quantification).

[3] = test system: NPC1- or NPC2-deficient cell lines; conditions: literature study, cultured NPC1- and NPC2-deficient cells; cited from earlier work
npc1−/− mice = conditions: cited from earlier work
[4] = test system: U18666A-treated GM05659 cells; assay: LSO filipin assay in U18666A-treated apparently normal fibroblasts; conditions: read-out: EC50 (μM), 50% reduction in LSO filipin, cyclodextrin 1 day
Protocol: as §3

human NPC1 cells = assay: Removal of cholesterol from LSOs by filipin staining and digital image analysis
Protocol: Graph showing the concentration and time dependence of the removal of cholesterol from LSOs of human NPC1 cells incubated with the indicated concentrations of MβCD in complete medium for 1-4 days.
Graph showing concentration of cholesterol from LSOs of NPC1 cells incubated with 0.33 mM MβCD for one hour under various conditions (i.e., no FBS, 10% FBS, and cholesterol-loaded MβCD (i.e., “MbCD/cholest.”), and these with either no chase or a 24 hour chase). At the end of the incubation, cells were rinsed thoroughly, and returned to complete medium for 24 hours.
Graph comparing the cholesterol-lowering ability of MβCD and a MβCD-dextran composition of the instant invention. Human NPC1 cells were incubated with MβCD (●) or Dextran-PEG-MbCD (O) for 39 hours. The polymers had about two MβCDs per polymer, and the concentration is the MβCD concentration.
(A) Cells were treated for 2 days with 50 μM MβCD or 50 μM MβCD conjugated to dextran fixed with paraformaldehyde, stained, and imaged. Cholesterol accumulation in LSOs was measured by quantifying filipin fluorescence. Data represent averages±SEM of one representative experiment (n=8, where n is total number of wells per condition used for quantification).
In this experiment, studies were conducted to determine the effects of MβCD on NPC1 and NPC2 cells. […] The cells were then rinsed and incubated in complete medium for 24 hours. […] To further emphasize this, the one-hour loading pulse was conducted with cholesterol-loaded MβCD, which would actually increase the cellular cholesterol during the loading period.

[5] = test system: NPC1- or NPC2-deficient cell lines; assay: Cholesterol esterification by ACAT (BODIPY-C12); type: cell-based, human; conditions: S58-035 at 10 μg/mL
Protocol: FIG. 12 A, B. Charts showing cholesterol esterification by ACAT. Cyclodextrin effects on cholesterol esterification in NPC1 (A) and NPC2 (B) mutant cells. Cells were treated for 1 hour with 3 mM MβCD or HPβCD and then allowed to recover in growth medium for 16 hours. Cells were then incubated with 3 μM 4,4-difluoro-4-bora-3a,4a-diaza-s-indacene-dodecanoic acid (BODIPY-C12) for 6 hours. The ratio of cholesteryl-BODIPY-C12 ester (CE)/BODIPY-C12 acid (FA) after TLC separation was measured and normalized to the average control value. ACAT inhibitor S58-035 was added, where indicated, at 10 μg/mL. For NPC1-defective cells, the average ratio was 0.110±0.007, which corresponded to 3.73±0.22 fmol CE formed per μg cell protein during 6 hours. Corresponding values for NPC2-defective cells were 0.089±0.003 and 2.50±0.24 fmol/μg.
To measure cholesterol levels within the endoplasmic reticulum in response to brief CD treatments, cholesterol esterification was measured by ACAT (FIG. 12). Increased esterification of cholesterol was observed several hours after a short (1-hour) CD treatment of NPC1- or NPC2-deficient cell lines. […] Corresponding reductions in cholesterol accumulation upon MβCD treatment, as measured by the LSO filipin assay, are shown in FIG. 13.

[6] = test system: NPC1 human fibroblast GM18453; NPC2 human fibroblast GM18445; assay: HDAC inhibitor effect on LSO cholesterol, 48-hour treatment; type: cell-based; conditions: 37 nM
Protocol: Cells were treated in complete medium for two days (48 hours). The dashed horizontal line is 3SD below the mean for untreated cells. (A) results for NPC1 human fibroblast GM18453, (B) results for NPC2 human fibroblast GM18445.
Each data point in the plot is representative of a total of 32 images from two independent experiments. The standard deviation (SD) for DMSO is 0.07, error bar=SE. The dotted line represents the DMSO control.

NPC1 fibroblast GM03123 = assay: HDAC inhibitor dose and time dependence on LSO cholesterol; type: cell-based, human
Description: FIG. 19. Plots showing the dose and time dependence for each of the studied HDACi compounds as a function of time on NPC1 fibroblast GM03123.
Dose and time dependence for each of the studied HDACi compounds as a function of time on NPC1 fibroblast GM03123 are shown in the plots of FIG. 19. Each data point in the plot is representative of a total of 32 images from two independent experiments. The SD for DMSO is 0.07, error bar=SE. The dotted line represents the DMSO control.

[7] = read-out: EC50 (μM), 50% reduction in LSO filipin, 1 day of treatment
[8] = read-out: EC50 (μM), 50% reduction in LSO filipin, 2 days of treatment
[9] = read-out: EC50 (μM), 50% reduction in LSO filipin, 3 days of treatment
[10] = read-out: EC50 (μM), 50% reduction in LSO filipin, 4 days of treatment

Row | Compound | EC50 (GM03123 (NPC1) cells; [7]) [µM] | EC50 (GM03123 (NPC1) cells; [8]) [µM] | EC50 (GM03123 (NPC1) cells; [9]) [µM] | EC50 (GM03123 (NPC1) cells; [10]) [µM] | EC50 (GM18455 (NPC2) cells; [7]) [µM] | EC50 (GM18455 (NPC2) cells; [8]) [µM] | EC50 (GM18455 (NPC2) cells; [9]) [µM] | EC50 (GM18455 (NPC2) cells; [10]) [µM] | BMP accumulation (NPC mutant cells) | cholesterol accumulation detected by filipin labeling [1] | LSO values one more day after CD removal versus fixed immediately [1] | LSO cholesterol accumulation after three days without extracellular CD [1] | level to which LSO cholesterol accumulation is reduced [1] | EC50 [2] [µM] | EC50 ([4]; U18666A 1,000 nM) [µM] | EC50 ([4]; U18666A […]) [µM] | also measured
1 | hydroxypropyl-βCD [HPβCD] | 3.16 | 3.77 | 4.18 | 5.44 | 272 | 20.8 | 16.9 | 11.5 | significantly reduced BMP accumulation | reduced cholesterol accumulation | further decrease in LSO values | significant reduction | near-normal levels | 17.4 | 185 | 69.9 | ACAT-mediated esterification of cholesterol [3]: increased ACAT-mediated esterification of cholesterol; glycosphingolipid storage (npc1−/− mice; repeated injections): clearance of various glycosphingolipids; lifespan (npc1−/− mice; repeated injections): further prolongation of lifespan; lifespan (npc1−/− mice; single injections): can extend their lifespan; times higher concentrations required to achieve the same effect as MβCD (human NPC1 cells; relative to MβCD): 3-5 times
2 | methyl β-cyclodextrin [MβCD] | 2.22 | 1.1 | 0.98 | 1.08 | 40.4 | 3.19 | 2.8 | 1.69 | significantly reduced BMP accumulation | reduced cholesterol accumulation | further decrease in LSO values | significant reduction | near-normal levels | 6.2 | 48.1 | 18.9 | concentration giving effects equivalent to those of HPβCD ([1]; relative to HPβCD): approximately three-fold lower concentrations; cholesterol in LSOs after 24 hr chase (human NPC1 cells; 1 hour pulse, 0.33 mM, then 24 hours in complete medium): significant reduction; time for the effect to reach steady state (human NPC1 cells; FIG. 1): about 2 days; EC50 (human NPC1 cells; read-out: concentration giving half-maximal effect on removal of cholesterol from LSOs, complete medium, 1-4 days (FIG. 1)): 2 to 3 µM
3 | MβCD-NH-(PEG)3-CONH-aminodextran [MβCD-dextran] | – | – | – | – | – | – | – | – | – | – | – | – | – | – | – | – | reversal of cholesterol accumulation in LSOs (filipin) (human NPC1 cells; 50 μM MβCD conjugated to dextran, 2 days (FIG. 11A)): can also reverse cholesterol accumulation; cholesterol-lowering in LSOs (human NPC1 cells; 39 hours, about two MβCDs per polymer (FIG. 3)): significant effect
4 | CCCCCCCCCC[Si](C)(C)CCC(=O)NC(Cc1ccc(C)cc1)c1ccccc1 (centres unmarked) [S58-035] | – | – | – | – | – | – | – | – | – | – | – | – | – | – | – | – | effect on CD-induced increase in cholesterol esterification [5]: inhibited
5 | CC(/C=C/C(=O)NO)=C\[C@@H](C)C(=O)c1ccc(N(C)C)cc1 [trichostatin A] | – | – | – | – | – | – | – | – | – | – | – | – | – | – | – | – | reduction of cholesterol in the LSOs [6]: significantly effective
6 | O=C(CCCCCCC(=O)Nc1ccccc1)NO [SAHA, suberoylanilide hydroxamic acid] | – | – | – | – | – | – | – | – | – | – | – | – | – | – | – | – | reduction of cholesterol in the LSOs (NPC1 fibroblast GM03123): somewhat effective; reduction of cholesterol in the LSOs (NPC1 fibroblast GM03123; 10 μM, other experiments (not shown)): much more effective
